# According to patent US10314821B2, “Crystalline forms of 4-cyano-N-(2-(4,4-dimethylcyclohex-1-en-1-yl)-6-(2,2,6,6-tetramethyltetrahydro-2H-pyran-4-yl)pyridin-3-yl)-1H-imidazole-2-carboxamide” (Janssen Pharmaceutica NV, priority 2016, dated 2019):
# Columns and labels:
# Format in all cases: physicochemical
# [1] = Competitive slurry studies in water, form by XRPD
# Protocol: Competitive slurry studies of Compound A, Forms II, IIA, IIB, III, IV, V, and VI were conducted at RT (room temperature, about 20° C.) and 50° C. in water. […] A small portion of the slurry was transferred to 50° C. after 2 days and analyzed using powder X-ray after being slurred at 50° C. for 2 hours (where a sample of the slurry was placed on an XRPD sample holder, the solvent allowed to evaporate under ambient conditions to yield a residue, and an XRPD measured for the residue). Complete conversion to Form I took place within 2 hours of heating.
# [2] = Moisture sorption analysis (DVS)
# Protocol: The moisture sorption analysis was performed using a Hiden Isochema system Model IGAsorp. The sample was run in a stainless-steel mesh crucible. The sample was initially dried at 60° C. for 30 minutes then the moisture profile was evaluated by monitoring vapor adsorption/desorption over the range of 0 to 90% relative humidity at 25° C. The moisture profile consisted of 2 cycles of vapor adsorption/desorption.
# [3] = Hygroscopicity and water solubility by USP methods; conditions: isolated solid, freebase
# Protocol: The isolated solid (Compound A, as a freebase) was a white crystalline solid, hygroscopic and insoluble in water as determined by USP methods. […] The XRD for Form I of Compound A differed from the XRD of a sample of the HCl salt of Compound A (e.g., FIG. 15). […] (equivalent to 0.23 mole of water) due to surface water loss and 0.5% between 182° C. and 219° C. due to melting/decomposition (as shown in FIG. 12). This differed from the TGA spectrum of the HCl salt of Compound A (e.g., FIG. 17).
# [4] = Slurry studies in organic solvents, form by XRPD
# Protocol: Small scale saturated solutions of Compound A, Form I (prepared as described in Example 1 above) in the organic solvents noted in Example 2, except water, toluene, or heptane, were prepared as follows. Compound A, Form I (5-10 mg) was added to 2 mL HPLC vials and the selected solvent (50 μL) was added. The resulting slurries were stirred at 300 rpm for up to 1 day. At 1 hour and 1 day time-points, a sample of each slurry was placed on an XRPD sample holder and the solvent evaporated under ambient conditions to yield a solid residue which was then analyzed by X-ray powder diffraction.
# [5] = Visual solubility of Compound A, Form I in solvents; conditions: 50 mg in 10 mL, stirred, heated to 40° C.; for solubility: organic solvent or mixture, thermodynamic from solid
# From the text: An automated solid-state form screening of Compound A was done using a binary solvent system. Screening experiments consisted of an array of 13 solvents (water, methanol, ethanol, acetone, acetonitrile, isopropyl alcohol, ethyl acetate, toluene, tetrahydrofuran (THF), dichloromethane, 2-butanone (MEK), 1-butanol, and heptane) under slow evaporation crystallization conditions. Specifically, saturated solutions of Compound A (prepared as described in Example 1 above) in 13 different solvents were prepared by adding solid powder of Compound A, Form I (50 mg, prepared as described in Example 1 above) and the selected solvent to 20 mL vials. The resulting solutions were stirred and heated to 40° C. All preparations dissolved quickly except in water, toluene, and heptane. Table 1 provides a summary of the visual solubility of Compound A, Form I in the noted solvents.
# [6] = at the end of a second moisture sorption-desorption cycle
smiles,measurement,setting,value
"CC1(C)CC=C(c2nc(C3CC(C)(C)OC(C)(C)C3)ccc2NC(=O)c2nc(C#N)c[nH]2)CC1 [Compound A, Form II, 4-cyano-N-[2-(4,4-dimethylcyclohex-1-en-1-yl)-6-(2,2,6,6-tetramethyltetrahydro-2H-pyran-4-yl)pyridine-3-yl]-1H-imidazole-2-carboxamide]",Time to complete conversion to Form I,[1]; competitive slurry in water at RT (about 20° C.),3 days
"CC1(C)CC=C(c2nc(C3CC(C)(C)OC(C)(C)C3)ccc2NC(=O)c2nc(C#N)c[nH]2)CC1 [Compound A, Form I, 4-cyano-N-[2-(4,4-dimethylcyclohex-1-en-1-yl)-6-(2,2,6,6-tetramethyltetrahydro-2H-pyran-4-yl)pyridine-3-yl]-1H-imidazole-2-carboxamide]",Hygroscopicity by DVS,[2]; 0 to 90% relative humidity at 25° C.,hygroscopic
same,Crystalline form upon humidity cycling (XRPD before and after DVS),[2]; 2 cycles of adsorption/desorption,did not change
same,Moisture retained,[2]; [6],1.8%
same,"Moisture retained, equivalent mole of water",[2]; [6],0.47 mole of water
same,Moisture adsorption,"[2]; up to 90% RH, 25° C.",41.8%
same,Hygroscopicity,[3],hygroscopic
same,Solubility in water,[3],insoluble
same,Relative thermodynamic stability of polymorphs,"[1]; as indicated by competitive slurry, hypothesized",most thermodynamically stable polymorph
same,Saturated Conc.,[4]; 1-Butanol slurry,90 mg/mL
same,Saturated Conc.,[4]; Acetone slurry,130 mg/mL
same,Saturated Conc.,[4]; Acetonitrile slurry,80 mg/mL
same,Saturated Conc.,[4]; DCM (dichloromethane) slurry,210 mg/mL
same,Saturated Conc.,[4]; Ethanol slurry,110 mg/mL
same,Saturated Conc.,[4]; Ethyl Acetate slurry,120 mg/mL
same,Saturated Conc.,[4]; IPA (isopropyl acetate) slurry,95 mg/mL
same,Saturated Conc.,[4]; Methanol slurry,80 mg/mL
same,Saturated Conc.,[4]; THF (tetrahydrofuran) slurry,420 mg/mL
same,XRPD pattern of solids isolated from solvent slurries,[4]; all solvent slurries except THF and DCM,consistent with Form I
same,Visual Solubility,[5]; 1-Butanol,Dissolve
same,Visual Solubility,[5]; Acetone,Dissolve
same,Visual Solubility,[5]; Acetonitrile,Dissolve
same,Visual Solubility,[5]; Dichloromethane,Dissolve
same,Visual Solubility,[5]; Ethanol,Dissolve
same,Visual Solubility,[5]; Ethyl Acetate,Dissolve
same,Visual Solubility,[5]; Heptane,Suspension
same,solubility,"[5]; IPA (isopropyl alcohol), IPA",> 5000 µg/mL
same,Visual Solubility,[5]; IPA,Dissolve
same,Visual Solubility,[5]; Methanol,Dissolve
same,Visual Solubility,[5]; MethylEthylKetone (MEK),Dissolve
same,Visual Solubility,[5]; THF,Dissolve
same,Visual Solubility,[5]; Toluene,Suspension
same,Visual Solubility,[5]; Water,Suspension
same,solubility,"[5]; methyl ethyl ketone (MEK, 2-butanone), MethylEthylKetone (MEK)",> 5000 µg/mL
same,solubility,[5]; 1-Butanol,> 5000 µg/mL
same,solubility,[5]; Acetone,> 5000 µg/mL
same,solubility,[5]; Acetonitrile,> 5000 µg/mL
same,solubility,[5]; Dichloromethane,> 5000 µg/mL
same,solubility,[5]; Ethanol,> 5000 µg/mL
same,solubility,[5]; Ethyl Acetate,> 5000 µg/mL
same,solubility,[5]; Methanol,> 5000 µg/mL
same,solubility,"[5]; tetrahydrofuran (THF), THF",> 5000 µg/mL
